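Results reflect a 48-hour exposure of cells in 96-well plates to compound at five concentrations. Here, GI50 denotes the concentration required for 50% inhibition of growth. TGI: concentration producing complete growth inhibition.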
Experiments:
Assay in all cases: NCI anticancer screen, dose series, 48 h
SW-620 colon = test system: SW-620 colon
SF-268 CNS = test system: SF-268 CNS
TK-10 renal = test system: TK-10 renal
DU-145 prostate = test system: DU-145 prostate
UO-31 renal = test system: UO-31 renal
HCT-15 colon = test system: HCT-15 colon
ACHN renal = test system: ACHN renal
SNB-19 CNS = test system: SNB-19 CNS
A498 renal = test system: A498 renal
HS 578T breast = test system: HS 578T breast

SMILES | GI50 (SW-620 colon) | TGI (SW-620 colon) | GI50 (SF-268 CNS) | TGI (SF-268 CNS) | GI50 (TK-10 renal) | TGI (TK-10 renal) | GI50 (DU-145 prostate) | TGI (DU-145 prostate) | GI50 (UO-31 renal) | TGI (UO-31 renal) | GI50 (HCT-15 colon) | TGI (HCT-15 colon) | GI50 (ACHN renal) | TGI (ACHN renal) | GI50 (SNB-19 CNS) | TGI (SNB-19 CNS) | GI50 (A498 renal) | TGI (A498 renal) | GI50 (HS 578T breast) | TGI (HS 578T breast)
C[C@H]1[C@H](C)CC[C@]2(C(=O)O)CC[C@]3(C)C(=CC[C@@H]4[C@@]5(C)CC[C@H](OC(=O)/C=C/c6ccc(O)cc6)C(C)(C)[C@@H]5CC[C@]43C)[C@H]12 | 9.2 µM | 32.4 µM | 3.23 µM | 12 µM | 3.01 µM | 17.5 µM | 2.32 µM | 13 µM | 3.59 µM | 29.8 µM | 10.9 µM | 33 µM | 5.05 µM | 9.12 µM | 2.44 µM | 22.9 µM | 21.1 µM | 37.9 µM | 2.81 µM | 8.8 µM
CN(C)CCNC(=O)Cn1ccc(=O)c2ccc([N+](=O)[O-])cc21 |  | > 100 µM |  | > 100 µM |  | > 100 µM |  | > 100 µM |  | > 100 µM |  | > 100 µM |  | > 100 µM |  | > 100 µM |  | > 100 µM |  | > 100 µM
Nc1c(C(=O)c2cccc(CCC3(O)CCCC3)c2)cnn1-c1ccc(F)cc1 | > 20.7 µM | > 25 µM | > 18.5 µM | > 25 µM | 18.8 µM | > 25 µM | > 21.1 µM | > 25 µM | 8.21 µM | > 25 µM | 18.7 µM | > 25 µM | > 21 µM | > 25 µM | 15.3 µM | > 25 µM | 3.62 µM | > 25 µM | 12.7 µM | > 25 µM
CO[C@H]1C[C@@H]2CC[C@@H](C)[C@@](O)(O2)C(=O)C(=O)N2CCCC[C@H]2C(=O)O[C@H]([C@H](C)C[C@@H]2CC[C@@H](OP(C)(C)=O)[C@H](OC)C2)CC(=O)[C@H](C)/C=C(\C)[C@@H](O)[C@@H](OC)C(=O)[C@H](C)C[C@H](C)/C=C/C=C/C=C/1C | 12.1 µM | 27.9 µM | 10.9 µM | 23.6 µM |  | 22.3 µM | 10.4 µM | 22.4 µM | < 0.01 µM | 16.1 µM | 1.21 µM | 29.5 µM | 0.411 µM | 21.5 µM | 7.03 µM | 23.5 µM | < 0.01 µM | 15.5 µM |  | 37.1 µM
O=c1oc2ccc(Cl)cc2c(=O)n1-c1cc(C(F)(F)F)cc(C(F)(F)F)c1 | 0.328 µM | 5.95 µM | 0.262 µM | 5.5 µM | 0.395 µM | 11 µM | 0.372 µM | 13.9 µM | 0.238 µM | 0.831 µM | 0.306 µM | 1.78 µM | 0.303 µM | 10.5 µM | 0.293 µM | 11.7 µM | 0.0531 µM | 0.311 µM | 0.239 µM | 0.987 µM
Cc1ncc(C(=O)Nc2ccc(CN3CCN(C)CC3)c(C(F)(F)F)c2)cc1C#Cc1cnc(N)c2ncccc12 | 0.208 µM | 2.9 µM | 0.417 µM | 3 µM | 0.318 µM | 2.13 µM | 0.18 µM | 2.08 µM | 0.0596 µM | 0.775 µM | 0.0752 µM | 1.79 µM | 0.063 µM | 1.65 µM | 2.16 µM | 5.33 µM | 0.228 µM | 2.38 µM | 0.23 µM | 4.69 µM
O=C(O)c1ccc(NCc2nc3cc4ccccc4cc3[nH]2)cc1 |  | > 100 µM |  | > 100 µM |  | > 100 µM |  | > 100 µM |  | > 100 µM |  | > 100 µM |  | > 100 µM |  | > 100 µM |  | > 100 µM |  | > 100 µM
COc1cccc(-n2ncc3c(N/N=C/c4ccc(S(C)(=O)=O)cc4)ncnc32)c1 | > 25 µM | > 25 µM | 5.98 µM | 13.5 µM | 8.4 µM | > 23.3 µM | 16.4 µM | > 25 µM | 5.77 µM | 14.3 µM | > 25 µM | > 25 µM | 6.27 µM | > 25 µM | 11.5 µM | > 25 µM | 0.75 µM | 11.3 µM | 0.608 µM | 7.34 µM
Nc1ccn(C2CC(O)C(CO)O2)c(=O)n1 (stereo not drawn) | > 5000 µM | > 5000 µM | > 5000 µM | > 5000 µM | > 5000 µM | > 5000 µM | > 5000 µM | > 5000 µM | > 5000 µM | > 5000 µM | > 5000 µM | > 5000 µM | > 5000 µM | > 5000 µM | > 5000 µM | > 5000 µM | > 5000 µM | > 5000 µM | > 5000 µM | > 5000 µM
O=C(O)CCCSc1nc2ccccc2s1 |  | > 100 µM |  | > 100 µM |  | > 100 µM |  | > 100 µM |  | > 100 µM |  | > 100 µM |  | > 100 µM |  | > 100 µM |  | > 100 µM |  | > 100 µM
CCOC(=O)c1ccc(Nc2sc(C(=O)c3cccc([N+](=O)[O-])c3)c(N)c2C#N)cc1 | 0.0591 µM | 6.63 µM | 0.198 µM | 21 µM | 0.192 µM | 17.3 µM | 0.184 µM | 21.1 µM | 0.0543 µM | 20 µM | 0.102 µM | > 100 µM | 0.0976 µM | > 44.2 µM | 0.338 µM | 18.6 µM | 0.0827 µM | 5.04 µM | 0.129 µM | > 39.1 µM
O=C(NNc1ccccc1)OCc1ccccc1 | 2.14 µM | > 100 µM | 9.27 µM | > 100 µM | 32.9 µM | > 100 µM | 75.5 µM | > 100 µM | 2.88 µM | 37 µM | 4.98 µM | > 100 µM | 6.9 µM | > 100 µM | 63.9 µM | > 100 µM | 13.3 µM | > 100 µM | 70.2 µM | > 100 µM
O=C1OC(C2=CC(=O)c3ccccc3C2=O)C(Cl)=C1Cl (stereo not drawn) |  | 94.1 µM |  | 79.2 µM |  | > 100 µM |  | > 100 µM |  | 31.8 µM |  | 41 µM |  | 33.6 µM |  | > 100 µM |  | > 100 µM |  | > 100 µM

From PubChem BioAssay (NCI)
